The results in this text go back to patent publication US6403623B1, “Heterocyclic antituberculosis agents” (Unuversity of Notre Dame du Lac, priority 1999, dated 2002).

One may read the inhibition as the relative decrease from the control value, in per cent.

In the test the test system is M. tuberculosis H37R. As to the kind of experiment: microbe, parasite or virus in culture. Format: cell-based. The following applies: Mycobacterium tuberculosis, in vitro, concentration of 12.5 μg/mL, read-out: inhibition of the growth of M. tuberculosis H37R.

For the compound `O=C(OCc1ccccc1)[C@@H]1COC(c2ccccc2OCc2ccccc2)=N1` [Example 1, (S)-Benzyl 2-[2-(Benzyloxy)phenyl]-2-oxazoline-4-carboxylate], the inhibition at 12.5 µg/mL came out at 98%.
